Source: US12247914B2, “Virus sensing in exhaled breath by infrared spectroscopy” (Vox Biomedical LLC, priority 2017, dated 2025)
Read-outs that look alike come from different tables or passages of the source.

Tests used:
subjects [1] = conditions: cited from earlier work
[2] = cited from earlier work
[3] = Blood THC concentration versus time after smoking; type: in vivo; conditions: about an hour after smoking cessation
Experimental: (§1) The high lipid solubility of cannabinoids results in their persisting in the body for long periods of time. Even after a single administration of THC, detectable levels of THC can be found in the body for weeks or longer. […] There are three accepted laboratory methods for detecting THC in individuals that have smoked or ingested marijuana: (1) urine testing, for which passive inhalation up to 22 minutes for infrequent users can be detected for 7-10 days after inhalation, with longer periods for heavy users, (2) hair testing, with THC being detectible for up to 90 days after inhalation, and (3) blood and oral fluid testing, for which THC can be detected for 2-24 hours after use in most cases, but for up to 2 weeks in some heavy users. A detailed investigation of the relationship between time after marijuana smoking and relative subject impairment provides an estimate of the relative degree of impairment (defined under Standardized Field Sobriety Tests) as a function of time after smoking various smoke concentrations of THC is shown in Table 1.

subjects [4] = experiment: Percent of impaired subjects by Standardized Field Sobriety Tests after smoking; type: in vivo; conditions: about an hour after smoking cessation
Experimental: as §1

[5] = cited from earlier work; remark: listed apart in the source
[6] = dose 1.74% THC smoked, Time 1 (0-5 mins) after smoking
[7] = dose 1.74% THC smoked, Time 2 (50-55 mins) after smoking
[8] = dose 1.74% THC smoked, Time 3 (100-105 mins) after smoking
[9] = dose 2.93% THC smoked, Time 1 (0-5 mins) after smoking
[10] = dose 2.93% THC smoked, Time 2 (50-55 mins) after smoking
[11] = dose 2.93% THC smoked, Time 3 (100-105 mins) after smoking

Question: Which “% impaired” value (subjects [1]; [6]) does the source give for `CCCCCc1cc(O)c2c(c1)OC(C)(C)[C@@H]1CCC(C)=C[C@@H]21` [THC, delta-9-tetrahydrocannabinol] here?
Answer: Its value is 23%.

Question: And the “% impaired” value (subjects [1]; [7])?
Answer: The value was 23%.

Question: What about the “% impaired” value (subjects [1]; [8]) of the same compound?
Answer: The value was 15%.

Question: What about the “% impaired” value (subjects [1]; [9]) of the same compound?
Answer: Its value is 46%.

Question: What about the “% impaired” value (subjects [1]; [10]) of the same compound?
Answer: Its value is 41%.

Question: And the “% impaired” value (subjects [1]; [11])?
Answer: The value was 28%.

Question: What about the “Blood THC” value [2, 6] of the same compound?
Answer: Its value is 55.5 ng/mL.

Question: And the “Blood THC” value [2, 7]?
Answer: Its value is 6.8 ng/mL.

Question: And the “Blood THC” value [2, 8]?
Answer: The value was 3.7 ng/mL.

Question: And the “Blood THC” value [2, 9]?
Answer: The value was 70.6 ng/mL.

Question: And the “Blood THC” value [2, 10]?
Answer: The value was 6.2 ng/mL.

Question: And the “Blood THC” value [2, 11]?
Answer: Its value is 3.2 ng/mL.

Question: And the “blood content of THC relative to its initial value” [3]?
Answer: Its value is roughly 10%.

Question: What about the “relative degree of impairment relative to its initial value” (subjects [4]) of the same compound?
Answer: The value was “about half”.

Question: What about the “time THC can be detected after use, blood and oral fluid testing” value ([5]; most cases) of the same compound?
Answer: Its value is 2 to 24 h.

Question: What about the “time THC can be detected after use, blood and oral fluid testing” value ([5]; some heavy users) of the same compound?
Answer: The value was “up to 2 weeks”.

Question: And the “time THC is detectible after inhalation, hair testing” value ([5]; hair)?
Answer: Its value is “up to 90 days”.

Question: And the “time THC can be detected after inhalation, urine testing” value ([5]; urine, infrequent users, passive inhalation up to 22 minutes)?
Answer: The value was 7 to 10 days.
